Assay [1] deals with Enterococcus faecalis: ATCC 29212. As to the kind of experiment: Antibacterial well diffusion, E. faecalis. The format is cell-based. Set-up: dose or concentration left out as unconfirmed. The text has this:
(§1) ATCC strains (American Type Culture Collection) were purchased from BD (Becton, Dickinson and Company). These strains were primarily activated in brain heart infusion broth and then grown on nonselective media nutrient agar (NA). A total of 7 bacterial strains (Escherichia. coli: ATCC 25922, Klebsiella pneumonia: ATCC 700603, Proteus mirabilis: ATCC 14153, Salmonella typhimurium: ATCC 14028, Pseudomonas aeruginosa: ATCC 254992, Staphylococcus aureus: ATCC 254996 and Enterococcus faecalis: ATCC 29212) were tested for antibacterial activity.
(§2) The 0.5 Macfarland standards were used to prepare the bacterial inoculum from log phase bacterial growth. Muller-Hinton agar (MHA) media plates were prepared aseptically in a safety cabinet; the medium was used to evaluate antibacterial activity. Sterile cork borer was used to make five wells (6 mm). MHA medium was swabbed with fresh culture (24 h ATCC bacterial strains). […] As a positive control, 15 μg of tetracycline was used and the negative control consists of 50 μL DMSO. The test was conducted with 3 replications. The plates were incubated according to Clinical and Laboratory Standards Institute guidelines ([CLSI 2017]) and the experiments were carried out aerobically at 35–37 °C for 18–20 h. The diameter of the inhibition zone around the wells was measured using a ruler, and the mean and standard deviation were calculated for three readings.

Assay [2] has as its system Escherichia. coli: ATCC 25922. The assay can be described thus: Antibacterial well diffusion, E. coli. The format is cell-based. The arrangement: dose or concentration left out as unconfirmed. The settings on record: ATCC25922, range stated over 3 compounds and 3 strains.
From the text: as §1
(§3) The 0.5 Macfarland standards were used to prepare the bacterial inoculum from log phase bacterial growth. Muller-Hinton agar (MHA) media plates were prepared aseptically in a safety cabinet; the medium was used to evaluate antibacterial activity. Sterile cork borer was used to make five wells (6 mm). MHA medium was swabbed with fresh culture (24 h ATCC bacterial strains). 50 μL of the tested compounds (0.5 mg/mL) prepared in DMSO were dispensed in the wells. As a positive control, 15 μg of tetracycline was used and the negative control consists of 50 μL DMSO. The test was conducted with 3 replications. The plates were incubated according to Clinical and Laboratory Standards Institute guidelines ([CLSI 2017]) and the experiments were carried out aerobically at 35–37 °C for 18–20 h. The diameter of the inhibition zone around the wells was measured using a ruler, and the mean and standard deviation were calculated for three readings.

The subject of assay [3] is Proteus mirabilis: ATCC 14153. The assay can be described thus: Antibacterial well diffusion, P. mirabilis. The format is cell-based. The arrangement: dose or concentration left out as unconfirmed.
From the text: as §1, §2

In assay [4] the test system is Klebsiella pneumonia: ATCC 700603. The assay can be described thus: Antibacterial well diffusion, K. pneumonia. The format is cell-based. The arrangement: zone of inhibition: dose or concentration left out as unconfirmed. To be noted: for antibacterial activity in words, K. pneumonia: 1 mg/mL; for zone of inhibition: Klebsiella pneumoniae, ATCC700603, range stated over 3 compounds and 3 strains.
From the text: as §1, §2

Assay [5] deals with Salmonella typhimurium: ATCC 14028. As to the kind of experiment: Antibacterial well diffusion, S. typhimurium. The format is cell-based. Set-up: dose or concentration left out as unconfirmed.
From the text: as §1, §2

Assay [6] has as its system Pseudomonas aeruginosa: ATCC 254992. As to the kind of experiment: Antibacterial well diffusion, P. aeruginosa. The format is cell-based. Set-up: dose or concentration left out as unconfirmed. The settings on record: ATCC254992, range stated over 3 compounds and 3 strains.
From the text: as §1, §3
In general terms: Agar diffusion results depend on both activity and mobility in agar.

The subject of assay [7] is MCF-7 (breast cancer) cells. As to the kind of experiment: MTT cytotoxicity assay, MCF-7. The format is cell-based. The settings on record: Homo sapiens, MCF7, 72 h, read-out: percentage of inhibition, MCF-7. On the procedure:
(§4) In the present study, two cancer cell lines were tested: HCT116 (colorectal carcinoma) and MCF-7 (breast cancer) (American Type Culture Collection, USA). Fetal calf serum (FCS: 10 %) and L-glutamine (2 mM) were used to make complete growth medium to conserve the cell lines (RPMI: Roswell Park Memorial Institute, France). Cell lines were incubated at 37 °C under atmosphere conditions of CO2 (5%). All tests were performed when the cells reached 80% confluence, and a trypan blue exclusion assay was used to test the viability of the cell lines ([Louis and Siegel, 2011]).
The cytotoxicity of the isolated compounds against HCT116 (colorectal carcinoma) and MCF-7 (breast cancer) cells was evaluated spectrophotometrically through an MTT assay. The assay was performed in 96-well microtiter plates ([Bekir et al., 2013]). The concentrations of HCT-116 and MCF-7 cells were fixed at 10 × 10^3 and 12 × 10^3 cells/well, respectively. The adherent cells were incubated overnight (37 °C) in a 5% enriched CO2 atmosphere. […] After removing the medium, incubated cells (37 °C) were mixed with 50 μL of MTT solution (3 mg/mL in phosphate-buffered saline, PBS) for 20–40 min. The […] proceeded by adding 80 μL of 100% DMSO. The measurement of the obtained reaction was taken spectrophotometrically at 540 nm. As a positive control, Doxorubicin, a conventional anticancer drug, was used. Cell viability was measured using formula II:II % Inhibition = […]where Abs control is the absorbance measured of the total cell activity as described without any inhibition; Abs blank control is the absorbance of MTT substrate; and Abs sample is the absorbance of each inhibitor compound sample.

For assay [8], the target named is α-glucosidase. As to the kind of experiment: α-Glucosidase inhibitory activity (PNPG substrate). The format is biochemical. To be noted: pH 6.8, 37 °C, 30 min. On the procedure: (2013)]. The substrate P-nitrophenyl-α-D-glucopyranoside (PNPG) was used for this experiment. Dimethyl sulfoxide (DMSO) was used to prepare different concentrations of the compounds (10–1000 μM). […] Afterwards, 40 μL of PNPG solution (0.375 mM) prepared in phosphate buffer (pH = 6.8) was added to the mixture and then incubated (37 °C for 30 min). 80 μL of Na2CO3 (0.2 M) prepared in phosphate buffer was added to the mixture. The absorbance was measured at 405 nm, and the measurement was replicated 3 times. The percentage of inhibition (%) reflects the α-glucosidase inhibitory activity and was calculated by formula (I):(I) α-glucosidase inhibition activity (%) = [(Acontrol – Asample)/Acontrol] × 100where Asample is the absorbance (405 nm) in the presence of the isolated compound and Acontrol is the absorbance (405 nm) of the control (A control consists of 20 μL potassium phosphate buffer instead of α-glucosidase solution).

The subject of assay [9] is Escherichia. coli: ATCC 25922. The arrangement: method as in Tsassi et al., 2010. The settings on record: previous studies on marmin; ref Tsassi et al., 2010; cited from earlier work.
Assay [10] concerns HCT116 (colorectal carcinoma) cells. As to the kind of experiment: MTT cytotoxicity assay, HCT116. The settings on record: Homo sapiens, HCT-116, 72 h, read-out: percentage of inhibition, HCT-116. The format is cell-based. On the procedure: as §4
The cytotoxicity of the isolated compounds against HCT116 (colorectal carcinoma) and MCF-7 (breast cancer) cells was evaluated spectrophotometrically through an MTT assay. The assay was performed in 96-well microtiter plates ([Bekir et al., 2013]). The concentrations of HCT-116 and MCF-7 cells were fixed at 10 × 10^3 and 12 × 10^3 cells/well, respectively. The adherent cells were incubated overnight (37 °C) in a 5% enriched CO2 atmosphere. […] Cell viability was measured using formula II:II % Inhibition = 100∗[(Abs control – Abs blank control)/(Abs sample- Abs blank sample)]where Abs control is the absorbance measured of the total cell activity as described without any inhibition; Abs blank control is the absorbance of MTT substrate; and Abs sample is the absorbance of each inhibitor compound sample.
In general terms: Formazan colour is commonly taken as a measure of viable cells.

In the case of `COc1c2ccoc2cc2oc(=O)ccc12` [Compound 4, Bergapten], the “antibacterial activity in words, E. faecalis” value in assay [1] is recorded as “did not seem to be active”. For the same molecule, the zone of inhibition in assay [2], in assay [4] and in assay [6] was 6 to 12 mm in each case. In addition, the “antibacterial activity in words, P. mirabilis” value in assay [3] was “did not seem to be active”. The “antibacterial activity in words, K. pneumonia” value in assay [4] is on record as “did not seem to be active”. Moreover, the “antibacterial activity in words, S. typhimurium” value in [5] is on record as “did not seem to be active”.

Usually inhibition stands for the change of the read-out against control, counted positive when it falls. In general, IC50 refers to the concentration that inhibits the measured activity by half. In the case of `CC(C)=CCOc1c2ccoc2cc2oc(=O)ccc12` [Compound 3, Isoimperatorin], the inhibition at 100 µM in assay [7] was found to be 43.2%. In addition, the “antibacterial activity in words, E. faecalis” value in assay [1] is listed as “did not seem to be active”. Besides, the zone of inhibition in assay [2], in [4] and in assay [6] was 6 to 12 mm throughout. In [3], the “antibacterial activity in words, P. mirabilis” value is given as “did not seem to be active”. For the same molecule, the IC50 in [8] was 171 ± 7.6 µM. For the same molecule, the “antibacterial activity in words, K. pneumonia” value in [4] is on record as “did not seem to be active”. In addition, the “antibacterial activity in words, S. typhimurium” value in assay [5] was “did not seem to be active”.

In the case of `COc1c2ccoc2c(OC)c2oc(=O)ccc12` [Compound 5, Isopimpinellin], in [7], the inhibition at 100 µM was determined as 30.6%. Moreover, the “antibacterial activity in words, E. faecalis” value in [1] is recorded as “did not seem to be active”. Also, the zone of inhibition in assay [2], in [4] and in assay [6] was 6 to 12 mm each time. In addition, the “antibacterial activity in words, P. mirabilis” value in [3] is given as “did not seem to be active”. The “antibacterial activity in words, K. pneumonia” value in [4] is “did not seem to be active”. Further, the “antibacterial activity in words, S. typhimurium” value in [5] is given as “did not seem to be active”.

As for `C/C(=C\COc1ccc2ccc(=O)oc2c1)CC[C@@H](O)C(C)(C)O` [Compound 1, Marmin], the “inhibition zone, E. coli (previous studies)” value in assay [9] was 9.5 mm. The inhibition at 100 µM in assay [10] was found to be 41.8%; in assay [7], 17.1%. In assay [8], this molecule came in with an IC50 of 186 ± 8.3 µM.

Turning to `CC(=CCOc1ccc2ccc(=O)oc2c1)CCC(O)C(C)(C)OC1OC(CO)C(O)C(O)C1O` (stereo not drawn) [Compound 2, Pituranthoside], the inhibition at 100 µM turned out to be 42.7% in assay [10] and 29.9% in [7]. For the same molecule, the zone of inhibition was 22 mm in [1] (Enterococcus faecalis, ATCC29212, read-out: inhibition zone (IZ), E. faecalis) and 21 mm in assay [5] (Salmonella enterica, read-out: inhibition zone (IZ), S. typhimurium). The IC50 in assay [8] came out at 347 ± 11.2 µM.

Source of the values: article PMC8056227, “Deverra tortuosa (Desf.) DC from Saudi Arabia as a new source of marmin and furanocoumarins derivatives with α-glucosidase, antibacterial and cytotoxic activities” (Heliyon, 2021).
